Data set [1] is described as follows: In vivo murine study: 25(OH)D in serum by ELISA (bioavailability of vitamin D). Further details: species or system mice (Cd1). The conditions noted are these: mice; one-week daily administration (groups 3, 5, 6). The protocol:
Mice (8-week old adult male Cd1) were enclosure-adapted and fed on a conventional diet. Mice were housed in cages and kept in a temperature-controlled environment (22±2° C.) with a 12-hour light/dark cycle with food for regular chow and tap water supplied ad libitum. After one week of acclimatisation, the animals were then randomly divided into 6 experimental groups of 6 mice each and each group was randomly assigned to one of the scheduled treatments (Table 1).
The strain Lactobacillus paracasei DG® CNCM I-1572 (in short, L paracasei DG®) was sub-cultured in MRS agar and a single colony was inoculated into culture broth and incubated for 18 hours at 37° C. under microaerophilic conditions. […] The optical density (OD 600 nm) was then measured and the suspension was diluted to OD=1.00. […] The decimal count of aliquots on selective medium allowed to quantify the live cell concentration equal to 1.6×10^9 CFU/ml of suspension (2.4×10^8 CFU/aliquot). […]
Mice were sacrificed 3 hours after the end of administration following fluorane anaesthesia and subsequent collection of blood by means of cardiac puncture and removal of the terminal ileum. […] The terminal ileum was first washed with PBS and then subjected to the collection of mucosa and the subsequent freezing in liquid nitrogen. mRNA was then extracted for the quantification of the expression of the vitamin D receptor at mucosal level. […]
Background: In an ELISA, binding on a coated surface is turned into a signal by an enzyme label.

Another data set relates to vitamin D receptor VDR. The experiment in a line: In vivo murine study: quantification of vitamin D receptor mRNA in ileal mucosa (quantitative PCR). On the set-up: species or system mice (Cd1). The conditions noted are these: mice. The protocol:
Mice were sacrificed 3 hours after the end of administration following fluorane anaesthesia and subsequent collection of blood by means of cardiac puncture and removal of the terminal ileum. The blood was centrifuged for the separation of serum which was then frozen until the subsequent dose of vitamin D3, in the form of 25-hydroxy-vitamin D (abbreviated as […] 25(OH)D). The terminal ileum was first washed with PBS and then subjected to the collection of mucosa and the subsequent freezing in liquid nitrogen. mRNA was then extracted for the quantification of the expression of the vitamin D receptor at mucosal level.
The terminal ileum was first washed with PBS and then subjected to the collection of mucosa and the subsequent freezing in liquid nitrogen. mRNA was then extracted for the quantification of the expression of the vitamin D receptor at mucosal level. From an operational point of view, total RNA extraction from the mucosa was performed first, then a 30 ng aliquot of total RNA was reverse transcribed to cDNA and then subjected to a quantitative PCR with primers for the vitamin D receptor VDR (described by Wu et al. 2010). Below is the summary of the sequence of primers: […]
RT-PCR analyses were also conducted using an “absolute” negative control and a housekeeping gene to normalise the results obtained (e.g. β-actin).

Each structure is given as a SMILES string.

Consider `C=C1CC[C@H](O)C/C1=C/C=C1\CCC[C@]2(C)[C@@H]([C@H](C)CCCC(C)C)CC[C@@H]12` [vitamin D3, cholecalciferol], for which the “change in serum levels of 25(OH)D versus treatment-free control group (statistical significance)” value in data set [1] is given as “did not generate any statistically significant change”. Besides, the “vitamin D receptor mRNA expression level in ileal mucosa versus treatment-free control” value in the data set with vitamin D receptor VDR (one-week daily administration (groups 3, 5, 6)) is recorded as “even more marked decrease”; in the data set with vitamin D receptor VDR (vitamin D3 single dose (groups 2 and 4)), “statistically significant decrease”.

(Values after patent US12472214B2, “Bacterial strains, the compositions thereof and use thereof in a method for the treatment of vitamin D deficiency, and disorders associated therewith” (priority 2020, dated 2025).)
